Values of other authors in patent US20250099481A1, “BCL-2 INHIBITORS” (Newave Pharmaceutical Inc., priority 2022, published 2025).
Values belong to the compound of their own block, whether it stands above or below them.

What was measured:
[1] = in vivo
[2] = test system: xenograft models of small-cell lung cancer and acute lymphoblastic leukemia; conditions: oral administration alone
Bcl-w = molecular target: T1, Bcl-w (Homo sapiens, UniProt Q92843)
T1 sequence (Q92843 1-193): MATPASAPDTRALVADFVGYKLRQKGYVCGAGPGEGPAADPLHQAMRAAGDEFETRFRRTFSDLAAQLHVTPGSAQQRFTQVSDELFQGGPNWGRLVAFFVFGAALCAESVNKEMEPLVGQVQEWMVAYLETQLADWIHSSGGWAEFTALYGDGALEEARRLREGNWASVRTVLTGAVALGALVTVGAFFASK

H345 xenograft = conditions: 100 mg/kg/day, H345 xenograft model
RS4;11 xenografts = conditions: single dose of 100 mg/kg
[3] = test system: DoHH2, Granta-519 xenografts; conditions: single agent or in combination with Bendamustine and other agents
[4] = test system: CLL who have 17p deletion; conditions: Human Phase I and II data, CLL with 17p deletion
CLL = conditions: read-out: average EC50, apoptosis

- oral bioavailability [1]: not orally bioavailable
- aqueous solubility: low aqueous solubility
Compound: CN(C)CC[C@H](CSc1ccccc1)Nc1ccc(S(=O)(=O)NC(=O)c2ccc(N3CCN(Cc4ccccc4-c4ccc(Cl)cc4)CC3)cc2)cc1[N+](=O)[O-] [ABT-737]
- efficacy in animal models (established tumors): improves survival, causes regression of established tumors, and produces cures in a high percentage of the mice

- Ki (Bcl-w): 1 nM
- IC50 (SCLC H146 cell line): 110 nM
Compound: CC1(C)CCC(c2ccc(Cl)cc2)=C(CN2CCN(c3ccc(C(=O)NS(=O)(=O)c4ccc(N[C@H](CCN5CCOCC5)CSc5ccccc5)c(S(=O)(=O)C(F)(F)F)c4)cc3)CC2)C1 [ABT-263]
- number of circulating platelets (circulating platelets; clinical trial, inhibition of BCL-XL): rapid, concentration-dependent decrease in the number of circulating platelets
- dose-limiting toxicity (circulating platelets; single-agent treatment in patients): thrombocytopenia is the dose-limiting toxicity
- tumor response [2]: complete tumor regressions
- TGI (H345 xenograft): 80%
- treated tumors indicating at least a 50% reduction in tumor volume (H345 xenograft): 20%

Compound: ABT-199
- maximal tumor growth inhibition (RS4;11 xenografts): 95%
- tumor growth delay (RS4;11 xenografts): 152%
- xenograft growth [3]: inhibits xenograft growth
- clinical efficacy [4]: highly efficacious
- EC50 (RS4;11 cells): 8 nM
- apoptosis induction (RS4;11 cells; cytochrome c release, caspase activation, accumulation of sub-G0/G1 DNA): induces a rapid apoptosis
- EC50 (CLL): 3 nM
